Assay results as given in patent US8802597B2, “Herbicidal pyrimidines” (E I du Pont de Nemours and Company, priority 2003, dated 2014).
Read-outs that look alike come from different tables or passages of the source.

What was measured:
Assay in all cases: Test C pre/postemergence
Type in all cases: in vivo
[1] = tested on: crabgrass (Digitaria sanguinalis); conditions: Digitaria sanguinalis; for pest or weed control at 8 g/ha: 8 g ai/ha; for pest or weed control at 16 g/ha: 16 g ai/ha; for pest or weed control at 31 g/ha: 31 g ai/ha; for pest or weed control at 62 g/ha: 62 g ai/ha
Summary of the method: (§1)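 We sprayed seeded pots preemergence and 2–18 cm seedlings postemergence with test chemicals in a non-phytotoxic solvent mixture including surfactant. Greenhouse plants were visually compared with untreated controls at 12 to 14 days and scored 0 (no effect) to 100 (complete control).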

[2] = tested on: johnsongrass (Sorghum halepense); conditions: Sorghum halepense; for pest or weed control at 8 g/ha: 8 g ai/ha; for pest or weed control at 16 g/ha: 16 g ai/ha; for pest or weed control at 31 g/ha: 31 g ai/ha; for pest or weed control at 62 g/ha: 62 g ai/ha
Summary of the method: as §1

[3] = tested on: common (oilseed) sunflower (Helianthus annuus); conditions: Helianthus annuus, pre-emergence, Preemergence, read-out: Plant response rating, Sunflower
Summary of the method: as §1

[4] = tested on: pigweed (Amaranthus retroflexus); conditions: Amaranthus retroflexus; for pest or weed control at 8 g/ha: 8 g ai/ha; for pest or weed control at 16 g/ha: 16 g ai/ha; for pest or weed control at 31 g/ha: 31 g ai/ha; for pest or weed control at 62 g/ha: 62 g ai/ha
Summary of the method: as §1

[5] = tested on: bermudagrass (Cynodon dactylon); conditions: Cynodon dactylon; for pest or weed control at 8 g/ha: 8 g ai/ha; for pest or weed control at 16 g/ha: 16 g ai/ha; for pest or weed control at 31 g/ha: 31 g ai/ha; for pest or weed control at 62 g/ha: 62 g ai/ha
Summary of the method: as §1

kochia (Kochia scoparia) = conditions: Bassia scoparia; for pest or weed control at 8 g/ha: 8 g ai/ha; for pest or weed control at 16 g/ha: 16 g ai/ha; for pest or weed control at 31 g/ha: 31 g ai/ha; for pest or weed control at 62 g/ha: 62 g ai/ha
Summary of the method: as §1

[6] = tested on: goosegrass (Eleusine indica); conditions: Eleusine indica, post-emergence, Postemergence, 8 g ai/ha; scale 0 to 100; read-out: Plant response rating, Goosegrass
Summary of the method: as §1

[7] = post-emergence, Postemergence, read-out: Plant response rating (scale of 0 to 100), Crabgrass
[8] = pre-emergence, Preemergence, scale 0 to 100, 0 no effect, 100 complete control, read-out: Plant response rating, Crabgrass
[9] = post-emergence, Postemergence, read-out: Plant response rating (scale of 0 to 100), Johnsongrass
[10] = pre-emergence, Preemergence, scale 0 to 100, 0 no effect, 100 complete control, read-out: Plant response rating, Johnsongrass
[11] = post-emergence, Postemergence, read-out: Plant response rating (scale of 0 to 100), Pigweed
[12] = pre-emergence, Preemergence, scale 0 to 100, 0 no effect, 100 complete control, read-out: Plant response rating, Pigweed
[13] = post-emergence, Postemergence, read-out: Plant response rating (scale of 0 to 100), Bermudagrass
[14] = pre-emergence, Preemergence, scale 0 to 100, 0 no effect, 100 complete control, read-out: Plant response rating, Bermudagrass
[15] = post-emergence, Postemergence, read-out: Plant response rating (scale of 0 to 100), Kochia
[16] = pre-emergence, Preemergence, scale 0 to 100, 0 no effect, 100 complete control, read-out: Plant response rating, Kochia

Nc1nc(-c2ccc(Br)cc2)nc(C(=O)O)c1Cl [Compound 95, 6-amino-2-(4-bromophenyl)-5-chloro-4-pyrimidinecarboxylic acid]
pest or weed control at 8 g/ha ([1]; post-emergence, Postemergence, scale 0 to 100, read-out: Plant response rating, Crabgrass): 75%
pest or weed control at 16 g/ha [1, 7]: 75%
pest or weed control at 31 g/ha [1, 7]: 80%
pest or weed control at 62 g/ha [1, 7]: 80%
pest or weed control at 8 g/ha ([1]; pre-emergence, Preemergence, scale 0 to 100 (0 no effect, 100 complete control), read-out: Plant response rating, Crabgrass): 0%
pest or weed control at 16 g/ha [1, 8]: 0%
pest or weed control at 31 g/ha [1, 8]: 30%
pest or weed control at 62 g/ha [1, 8]: 35%
pest or weed control at 8 g/ha ([2]; post-emergence, Postemergence, scale 0 to 100, read-out: Plant response rating, Johnsongrass): 55%
pest or weed control at 16 g/ha [2, 9]: 70%
pest or weed control at 31 g/ha [2, 9]: 75%
pest or weed control at 62 g/ha [2, 9]: 90%
pest or weed control at 8 g/ha ([2]; pre-emergence, Preemergence, scale 0 to 100 (0 no effect, 100 complete control), read-out: Plant response rating, Johnsongrass): 0%
pest or weed control at 16 g/ha [2, 10]: 50%
pest or weed control at 31 g/ha [2, 10]: 60%
pest or weed control at 62 g/ha [2, 10]: 80%
pest or weed control at 8 g/ha ([3]; 8 g ai/ha, scale 0 to 100 (0 no effect, 100 complete control)): 5%
pest or weed control at 16 g/ha ([3]; 16 g ai/ha, scale 0 to 100, 0 no effect, 100 complete control): 40%
pest or weed control at 31 g/ha ([3]; 31 g ai/ha, scale 0 to 100, 0 no effect, 100 complete control): 95%
pest or weed control at 62 g/ha ([3]; 62 g ai/ha, scale 0 to 100, 0 no effect, 100 complete control): 100%
pest or weed control at 8 g/ha ([4]; post-emergence, Postemergence, scale 0 to 100, read-out: Plant response rating, Pigweed): 90%
pest or weed control at 16 g/ha [4, 11]: 95%
pest or weed control at 31 g/ha [4, 11]: 100%
pest or weed control at 62 g/ha [4, 11]: 100%
pest or weed control at 8 g/ha ([4]; pre-emergence, Preemergence, scale 0 to 100 (0 no effect, 100 complete control), read-out: Plant response rating, Pigweed): 50%
pest or weed control at 16 g/ha [4, 12]: 90%
pest or weed control at 31 g/ha [4, 12]: 100%
pest or weed control at 62 g/ha [4, 12]: 100%
pest or weed control at 8 g/ha ([5]; post-emergence, Postemergence, scale 0 to 100 (0 no effect, 100 complete control), read-out: Plant response rating, Bermudagrass): 70%
pest or weed control at 16 g/ha [5, 13]: 70%
pest or weed control at 31 g/ha [5, 13]: 85%
pest or weed control at 62 g/ha ([5]; post-emergence, Postemergence, scale 0 to 100 (0 no effect, 100 complete control), read-out: Bermudagrass plant response rating): 85%
pest or weed control at 8 g/ha ([5]; pre-emergence, Preemergence, scale 0 to 100 (0 no effect, 100 complete control), read-out: Plant response rating, Bermudagrass): 0%
pest or weed control at 16 g/ha [5, 14]: 0%
pest or weed control at 31 g/ha [5, 14]: 0%
pest or weed control at 62 g/ha [5, 14]: 55%
pest or weed control at 8 g/ha (kochia (Kochia scoparia); post-emergence, Postemergence, scale 0 to 100, read-out: Plant response rating, Kochia): 90%
pest or weed control at 16 g/ha (kochia (Kochia scoparia); [15]): 95%
pest or weed control at 31 g/ha (kochia (Kochia scoparia); [15]): 95%
pest or weed control at 62 g/ha (kochia (Kochia scoparia); [15]): 95%
pest or weed control at 8 g/ha (kochia (Kochia scoparia); pre-emergence, Preemergence, scale 0 to 100 (0 no effect, 100 complete control), read-out: Plant response rating, Kochia): 0%
pest or weed control at 16 g/ha (kochia (Kochia scoparia); [16]): 0%
pest or weed control at 31 g/ha (kochia (Kochia scoparia); [16]): 40%
pest or weed control at 62 g/ha (kochia (Kochia scoparia); [16]): 45%
pest or weed control at 8 g/ha [6]: 50%
